{"source": "patent US7199285B2", "about": "“Modulation of abscisic acid signal transduction in plants” (University of California, San Diego, priority 2000, dated 2007)", "key": {"[1]": {"tested_on": "abh1 mutant", "test": "seed germination, hypocotyl and root growth assays in the presence of hormones", "format": "in vivo, Arabidopsis thaliana", "conditions": "abh1, hormone concentrations from 10 nM to 100 μM", "experimental": "Other hormone signaling mutants were analyzed in control experiments: axr1–3 (auxin insensitive) (C. Lincoln et al., Plant Cell, 2:1071(1990)), ein2-1 (ethylene insensitive) (J. M. Alonso et al., Science, 284:2148 (1999)), gai-1 (GA insensitive) (M. Koornneef et al., Physiol Plant., 65:33 (1985)), era1-2 (ABA hypersensitive) (S. Cutler et al., Science, 273:1239 (1996))), and jar1-1 (JA insensitive) (P. E. Staswick et al., Proc. Natl. Acad. Sci. U.S.A., 89:6837 (1992))."}, "[2]": {"tested_on": "guard cells", "test": "time-resolved cameleon [Ca2+]cyt imaging of ABA-induced [Ca2+]cyt elevations", "format": "cell-based, Arabidopsis thaliana", "experimental": "Due to the basal regulation of anion and K^+ channels in abh1 without addition of exogenous ABA, experiments were pursued to analyze whether mechanisms lying further upstream confer ABA hypersensitivity in abh1. […] Therefore we directly investigated whether abh1 modulates ABA-induced [Ca^2+]cyt elevations in time-resolved cameleon [Ca^2+]cyt imaging experiments (G. J. Allen et al, The Plant J., 19:735 (1999)). Stomata were opened by exposing plants for 12 hours to 95% humidity."}, "[3]": {"tested_on": "guard cells", "test": "stomatal closure in response to ABA", "format": "cell-based, Arabidopsis thaliana", "conditions": "abh1, stomata opened 12 hours at 95% humidity", "experimental": "ABH1 is expressed in guard cells. To determine whether ABH1 modulates early ABA signal transduction elements, stomatal closure in response to ABA was investigated. Stomata were opened by exposing plants for 12 hours to high humidity (95%). Under these conditions stomatal apertures were similar in wild-type and abh1 (2.03±0.19 μm, wild-type, n=60; 1.92±0.21 μm, abh1, n=60; P>0.38). Stomatal closure in abh1 was ABA hypersensitive compared to wild-type (P<0.001). When stomatal apertures were measured in leaves harvested directly from plants grown under lower humidity (40%), without exogenous ABA addition, stomatal apertures of abh1 were smaller than those of wild-type plants (P<0.001), possibly resulting from a hypersensitive response to endogenous ABA."}, "[4]": {"tested_on": "Arabidopsis thaliana seeds", "test": "seed germination on minimum medium with ABA", "format": "in vivo", "conditions": "0.3 μM ABA", "experimental": "This was carried out using Arabidopsis lines (Columbia background, T3 seeds), which were transformed with a T-DNA (SK1015) (D. Weigel et al., Plant Physiol., 122:1003 (2000)), and plated on minimum medium (0.25×MS) with 0.3 μM ABA. After 4 days at 4° C., seeds were transferred to 28° C., continuous light. After 5 more days, germination was analyzed. Non-germinated seeds were transferred to soil and further analyzed."}}}
{"smiles": "C=C1C[C@]23C[C@@]1(O)CC[C@H]2[C@@]12C=C[C@H](O)[C@@](C)(C(=O)O1)[C@H]2[C@@H]3C(=O)O", "note": "[GA, gibberellic acid]", "values": [{"measurement": "phenotypic response (sensitivity) of abh1 mutant to hormone", "setting": "[1]", "value": "slightly reduced sensitivity"}]}
{"smiles": "CC1=CC(=O)CC(C)(C)[C@@]1(O)/C=C/C(C)=C\\C(=O)O", "note": "[ABA, abscisic acid]", "values": [{"measurement": "cells responding with one [Ca2+]cyt elevation", "setting": "[2]; abh1, 0.5 μM ABA", "value": 19, "unit": "%"}, {"measurement": "cells showing multiple repetitive [Ca2+]cyt increases", "setting": "[2]; abh1, 0.5 μM ABA", "value": 45, "unit": "%"}, {"measurement": "cells showing no response", "setting": "[2]; abh1, 0.5 μM ABA", "value": 36, "unit": "%"}, {"measurement": "guard cells showing [Ca2+]cyt increases", "setting": "[2]; abh1, 0.5 μM ABA", "value": 64, "unit": "%"}, {"measurement": "average peak increase of [Ca2+]cyt", "setting": "[2]; wild-type, 0.5 μM ABA", "value": "170 ± 25", "unit": "nM"}, {"measurement": "guard cells showing [Ca2+]cyt increase (typically only one)", "setting": "[2]; wild-type, 0.5 μM ABA", "value": 44, "unit": "%"}, {"measurement": "guard cells showing no [Ca2+]cyt increase", "setting": "[2]; wild-type, 0.5 μM ABA", "value": 56, "unit": "%"}, {"measurement": "stomatal closure sensitivity compared to wild-type", "setting": "[3]", "value": "hypersensitive"}, {"measurement": "phenotypic response (sensitivity) of abh1 mutant to hormone", "setting": "[1]", "value": "showed phenotypic responses only to ABA"}, {"measurement": "germination", "setting": "[4]; abh1 mutant seeds", "value": "inhibited"}, {"measurement": "germination", "setting": "[4]; wild-type seeds", "value": "allowed germination"}]}
